{"source": "patent US20110306801A1", "about": "“EXTRACTION AND SEPARATION PROCESSES FOR RECOVERY OF ORGANIC SOLUTES FROM FEED SOURCES AND APPARATUSES FOR PERFORMING SAME” (Trans Ionics Corporation, priority 2009, published 2011)", "key": {"[1]": {"assay": "Extraction of ethanol from water with cetyl alcohol, equilibrium data and distribution coefficient", "type": "physicochemical", "conditions": "aqueous ethanol feed, 75° C.", "protocol": "(§1) DC=(Wo/Ws)ext/(Wo/Ww)raff (1)\n(§2) The slope of this line is the distribution coefficient.\nCetyl Alcohol as an Extraction Solvent For Ethanol. Cetyl alcohol was used as a solvent for ethanol extraction. Because cetyl alcohol melts between 47° C. and 50° C. and therefore is a solid at both room temperature (25° C.) and typical fermentation temperatures (40° C.), it has been overlooked as an extraction solvent. Cetyl alcohol was tested at 75° C. at a solvent:feed ratio of 5:1."}, "[2]": {"conditions": "cetyl alcohol/oleic acid 50/50 wt %, 5:1, 75° C.", "protocol": "One measure of the effectiveness of a solvent for extracting solutes is termed the distribution coefficient, which is calculated as follows in Formula (1):\nas §1, §2\nMixtures of Cetyl Alcohol and Other Solvents For Extraction of Ethanol. Mixtures of cetyl alcohol with other solvents were used in order to produce a resulting extraction solvent having a lower melting point than pure cetyl alcohol. […] This solvent mixture was tested for ethanol extraction at a solvent:feed ratio of 5:1 at 75° C."}, "[3]": {"assay": "Batch separation of ethanol from xylenes using 5 Å zeolite molecular sieves", "type": "physicochemical", "conditions": "10.0 grams feed (8.00 wt % ethanol, 0.07 wt % water, balance mixed xylenes) with 5.0 gm zeolite, 40° C."}, "[4]": {"conditions": "ethanol, ABE feed, cetyl alcohol/mixed xylenes 50/50 wt %"}, "[5]": {"conditions": "approximately 6.0 grams 100-120 mesh 5 Å sieves, 10.1 mm ID column, 20.0 ml feed with 7.47 wt % ethanol in xylenes", "procedure": "Commercially available Linde 5 Å molecular sieves containing binder were ground and sieved to 100-120 mesh using standard screens. After activation at 400° C., the sieves were cooled to 150° C. and poured directly into mixed xylenes.\nThe stopcock was opened and samples of liquid were taken every 10 minutes for analysis by gas chromatography. Data were normalized to produce a dimensionless concentration by dividing each of the outlet ethanol concentrations by that of the feed stream."}}, "note": "Where two headings read alike, the source gives them in different places.", "data": [{"compound": "CCCCCCCCCCCCCCCCO", "note": "[Cetyl alcohol]", "values": [{"measurement": "emulsion formation as extraction solvent", "setting": "[1]", "result": "no indication of the formation of emulsions"}]}, {"compound": "CCO", "note": "[ethanol]", "values": [{"measurement": "Extract (Wo/Ws)", "setting": "[2]; feed Wo/Ww 0.2000", "result": 0.0316, "unit": "Wo/Ws"}, {"measurement": "Extract (Wo/Ws)", "setting": "[2]; feed Wo/Ww 0.5000", "result": 0.0848, "unit": "Wo/Ws"}, {"measurement": "ethanol content leveled out after contact with 5 Å zeolite pellets", "setting": "[3]", "result": 1.07, "unit": "wt %"}, {"measurement": "Extract (Wo/Ws)", "setting": "[4]; 5:1, 40° C., feed Wo/Ww 0.002", "result": 0.00002, "unit": "Wo/Ws"}, {"measurement": "Raffinate (Wo/Ww)", "setting": "[4]; 5:1, 40° C., feed Wo/Ww 0.002", "result": 0.00009, "unit": "Wo/Ww"}, {"measurement": "Extract (Wo/Ws)", "setting": "[4]; 5:1, 40° C., feed Wo/Ww 0.03", "result": 0.0005, "unit": "Wo/Ws"}, {"measurement": "Raffinate (Wo/Ww)", "setting": "[4]; 5:1, 40° C., feed Wo/Ww 0.03", "result": 0.0025, "unit": "Wo/Ww"}, {"measurement": "Extract (Wo/Ws)", "setting": "[4]; 5:1, 40° C., feed Wo/Ww 0.06", "result": 0.0010, "unit": "Wo/Ws"}, {"measurement": "Raffinate (Wo/Ww)", "setting": "[4]; 5:1, 40° C., feed Wo/Ww 0.06", "result": 0.0052, "unit": "Wo/Ww"}, {"measurement": "Extract (Wo/Ws)", "setting": "[4]; 5:1, 40° C., feed Wo/Ww 0.12", "result": 0.0021, "unit": "Wo/Ws"}, {"measurement": "Raffinate (Wo/Ww)", "setting": "[4]; 5:1, 40° C., feed Wo/Ww 0.12", "result": 0.0102, "unit": "Wo/Ww"}, {"measurement": "Raffinate (Wo/Ww)", "setting": "[4]; 5:1, 40° C., feed Wo/Ww 0.15", "result": 0.0126, "unit": "Wo/Ww"}, {"measurement": "Extract (Wo/Ws)", "setting": "[4]; 5:1, 40° C., feed Wo/Ww 0.19", "result": 0.0032, "unit": "Wo/Ws"}, {"measurement": "Raffinate (Wo/Ww)", "setting": "[4]; 5:1, 40° C., feed Wo/Ww 0.19", "result": 0.0152, "unit": "Wo/Ww"}, {"measurement": "Extract (Wo/Ws)", "setting": "[4]; 5:1, 75° C., feed Wo/Ww 0.002", "result": 0.00003, "unit": "Wo/Ws"}, {"measurement": "Raffinate (Wo/Ww)", "setting": "[4]; 5:1, 75° C., feed Wo/Ww 0.002", "result": 0.00007, "unit": "Wo/Ww"}, {"measurement": "Extract (Wo/Ws)", "setting": "[4]; 5:1, 75° C., feed Wo/Ww 0.03", "result": 0.0009, "unit": "Wo/Ws"}, {"measurement": "Raffinate (Wo/Ww)", "setting": "[4]; 5:1, 75° C., feed Wo/Ww 0.03", "result": 0.0021, "unit": "Wo/Ww"}, {"measurement": "Extract (Wo/Ws)", "setting": "[4]; 5:1, 75° C., feed Wo/Ww 0.06", "result": 0.0012, "unit": "Wo/Ws"}, {"measurement": "Raffinate (Wo/Ww)", "setting": "[4]; 5:1, 75° C., feed Wo/Ww 0.06", "result": 0.0043, "unit": "Wo/Ww"}, {"measurement": "Extract (Wo/Ws)", "setting": "[4]; 5:1, 75° C., feed Wo/Ww 0.12", "result": 0.0025, "unit": "Wo/Ws"}, {"measurement": "Raffinate (Wo/Ww)", "setting": "[4]; 5:1, 75° C., feed Wo/Ww 0.12", "result": 0.0084, "unit": "Wo/Ww"}, {"measurement": "Extract (Wo/Ws)", "setting": "[4]; 5:1, 75° C., feed Wo/Ww 0.15", "result": 0.0031, "unit": "Wo/Ws"}, {"measurement": "Raffinate (Wo/Ww)", "setting": "[4]; 5:1, 75° C., feed Wo/Ww 0.15", "result": 0.0105, "unit": "Wo/Ww"}, {"measurement": "Raffinate (Wo/Ww)", "setting": "[4]; 5:1, 75° C., feed Wo/Ww 0.19", "result": 0.0125, "unit": "Wo/Ww"}, {"measurement": "volume of effluent exited the column before ethanol appeared in the product", "setting": "[5]", "result": 20, "unit": "mL"}]}]}
